Data taken from ChEMBL document CHEMBL4507267 (2021).

Tests used:
[1] = molecular target: Delta-type opioid receptor (Homo sapiens) (UniProt P41143); details: Compound concentration 10.0 uM
[2] = molecular target: T1, Histamine H1 receptor (Homo sapiens, UniProt P35367); details: Compound concentration 10.0 uM
[3] = molecular target: Non-receptor tyrosine-protein kinase TYK2 (Homo sapiens) (UniProt P29597); details: Compound concentration 1000.0 nM
[4] = system: Receptor-type tyrosine-protein kinase FLT3 (Homo sapiens), P36888 [UNDEFINED MUTATION]; details: Compound concentration 1000.0 nM
[5] = molecular target: RAC-gamma serine/threonine-protein kinase (Homo sapiens) (UniProt Q9Y243); details: Compound concentration 1000.0 nM
RAC-gamma serine/threonine-protein kinase (Homo sapiens), sequence (Q9Y243 whole entry): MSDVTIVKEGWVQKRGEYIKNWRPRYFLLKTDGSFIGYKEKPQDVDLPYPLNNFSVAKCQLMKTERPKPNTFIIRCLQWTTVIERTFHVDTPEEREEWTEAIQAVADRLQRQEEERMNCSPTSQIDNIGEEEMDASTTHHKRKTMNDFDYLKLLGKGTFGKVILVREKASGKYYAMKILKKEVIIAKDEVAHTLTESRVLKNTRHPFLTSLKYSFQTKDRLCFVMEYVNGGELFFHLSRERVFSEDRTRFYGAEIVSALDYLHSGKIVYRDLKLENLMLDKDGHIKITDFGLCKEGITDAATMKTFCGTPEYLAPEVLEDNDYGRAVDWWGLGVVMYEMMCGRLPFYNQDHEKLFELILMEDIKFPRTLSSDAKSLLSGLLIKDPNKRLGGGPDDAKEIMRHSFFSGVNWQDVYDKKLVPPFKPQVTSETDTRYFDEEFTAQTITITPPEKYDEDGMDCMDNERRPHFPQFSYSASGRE

[6] = molecular target: Sodium-dependent noradrenaline transporter (Homo sapiens) (UniProt P23975); details: Compound concentration 10.0 uM
[7] = molecular target: Tyrosine-protein kinase receptor UFO (Homo sapiens) (UniProt P30530); details: Compound concentration 1000.0 nM
[8] = molecular target: Ephrin type-A receptor 7 (Homo sapiens) (UniProt Q15375); details: Compound concentration 1000.0 nM
[9] = molecular target: Dual specificity testis-specific protein kinase 1 (Homo sapiens) (UniProt Q15569); details: Compound concentration 1000.0 nM
Dual specificity testis-specific protein kinase 1 (Homo sapiens), sequence (Q15569 whole entry, looked up): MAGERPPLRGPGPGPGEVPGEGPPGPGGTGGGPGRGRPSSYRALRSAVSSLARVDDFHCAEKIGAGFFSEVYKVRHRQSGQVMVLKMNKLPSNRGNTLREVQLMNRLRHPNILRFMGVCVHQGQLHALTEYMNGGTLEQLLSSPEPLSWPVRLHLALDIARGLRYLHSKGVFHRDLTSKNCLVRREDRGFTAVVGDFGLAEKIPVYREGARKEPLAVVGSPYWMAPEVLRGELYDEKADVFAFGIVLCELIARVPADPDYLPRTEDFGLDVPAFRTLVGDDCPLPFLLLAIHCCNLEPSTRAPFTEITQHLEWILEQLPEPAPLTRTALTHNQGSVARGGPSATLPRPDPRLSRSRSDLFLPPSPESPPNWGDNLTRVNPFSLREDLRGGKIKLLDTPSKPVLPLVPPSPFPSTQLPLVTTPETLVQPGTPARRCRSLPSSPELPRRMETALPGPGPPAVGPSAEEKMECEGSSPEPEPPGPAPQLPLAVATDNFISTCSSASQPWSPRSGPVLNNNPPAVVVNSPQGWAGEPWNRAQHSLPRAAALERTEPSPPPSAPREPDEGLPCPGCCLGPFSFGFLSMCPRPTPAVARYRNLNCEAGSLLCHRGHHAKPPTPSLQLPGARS

[10] = molecular target: cGMP-dependent protein kinase 2 (Homo sapiens) (UniProt Q13237); details: Compound concentration 1000.0 nM
[11] = molecular target: Calcium/calmodulin-dependent protein kinase type II subunit delta (Homo sapiens) (UniProt Q13557); details: Compound concentration 1000.0 nM
Calcium/calmodulin-dependent protein kinase type II subunit delta (Homo sapiens), sequence (Q13557 whole entry): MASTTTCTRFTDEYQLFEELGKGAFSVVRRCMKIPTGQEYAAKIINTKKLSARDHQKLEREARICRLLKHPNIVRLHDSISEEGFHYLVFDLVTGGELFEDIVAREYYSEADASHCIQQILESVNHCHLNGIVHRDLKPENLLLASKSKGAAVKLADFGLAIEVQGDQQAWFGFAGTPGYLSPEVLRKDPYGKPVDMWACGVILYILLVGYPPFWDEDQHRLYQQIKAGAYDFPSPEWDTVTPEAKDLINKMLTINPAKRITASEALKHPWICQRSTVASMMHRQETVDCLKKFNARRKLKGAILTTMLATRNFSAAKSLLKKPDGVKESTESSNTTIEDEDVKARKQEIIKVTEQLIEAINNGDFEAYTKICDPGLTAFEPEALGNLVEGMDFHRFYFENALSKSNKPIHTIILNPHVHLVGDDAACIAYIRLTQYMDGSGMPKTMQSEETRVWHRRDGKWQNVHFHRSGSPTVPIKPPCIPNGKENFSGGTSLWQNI

[12] = molecular target: D(1A) dopamine receptor (Homo sapiens) (UniProt P21728); details: Compound concentration 10.0 uM
[13] = molecular target: Solute carrier family 2, facilitated glucose transporter member 2 (Homo sapiens, UniProt P11168); assay: Cell-based assay with CellTiter-Glo readout for ATP production with SLC2A2
[14] = molecular target: Citron Rho-interacting kinase (Homo sapiens) (UniProt O14578); details: Compound concentration 1000.0 nM
[15] = molecular target: Serine/threonine-protein kinase 17A (Homo sapiens) (UniProt Q9UEE5); details: Compound concentration 1000.0 nM
Serine/threonine-protein kinase 17A (Homo sapiens), sequence (Q9UEE5 whole entry): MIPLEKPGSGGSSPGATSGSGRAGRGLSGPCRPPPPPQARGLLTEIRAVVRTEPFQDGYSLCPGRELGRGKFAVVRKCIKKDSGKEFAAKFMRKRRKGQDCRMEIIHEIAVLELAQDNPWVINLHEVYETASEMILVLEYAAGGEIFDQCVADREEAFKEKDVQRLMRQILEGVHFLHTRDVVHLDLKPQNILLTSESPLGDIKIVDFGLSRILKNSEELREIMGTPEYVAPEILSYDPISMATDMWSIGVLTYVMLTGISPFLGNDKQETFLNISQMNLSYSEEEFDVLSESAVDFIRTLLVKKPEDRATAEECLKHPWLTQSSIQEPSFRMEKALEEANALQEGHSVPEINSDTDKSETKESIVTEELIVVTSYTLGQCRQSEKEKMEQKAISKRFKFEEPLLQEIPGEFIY

[16] = molecular target: Ribosomal protein S6 kinase alpha-3 (Homo sapiens) (UniProt P51812); details: Compound concentration 1000.0 nM
Ribosomal protein S6 kinase alpha-3 (Homo sapiens), sequence (P51812 whole entry): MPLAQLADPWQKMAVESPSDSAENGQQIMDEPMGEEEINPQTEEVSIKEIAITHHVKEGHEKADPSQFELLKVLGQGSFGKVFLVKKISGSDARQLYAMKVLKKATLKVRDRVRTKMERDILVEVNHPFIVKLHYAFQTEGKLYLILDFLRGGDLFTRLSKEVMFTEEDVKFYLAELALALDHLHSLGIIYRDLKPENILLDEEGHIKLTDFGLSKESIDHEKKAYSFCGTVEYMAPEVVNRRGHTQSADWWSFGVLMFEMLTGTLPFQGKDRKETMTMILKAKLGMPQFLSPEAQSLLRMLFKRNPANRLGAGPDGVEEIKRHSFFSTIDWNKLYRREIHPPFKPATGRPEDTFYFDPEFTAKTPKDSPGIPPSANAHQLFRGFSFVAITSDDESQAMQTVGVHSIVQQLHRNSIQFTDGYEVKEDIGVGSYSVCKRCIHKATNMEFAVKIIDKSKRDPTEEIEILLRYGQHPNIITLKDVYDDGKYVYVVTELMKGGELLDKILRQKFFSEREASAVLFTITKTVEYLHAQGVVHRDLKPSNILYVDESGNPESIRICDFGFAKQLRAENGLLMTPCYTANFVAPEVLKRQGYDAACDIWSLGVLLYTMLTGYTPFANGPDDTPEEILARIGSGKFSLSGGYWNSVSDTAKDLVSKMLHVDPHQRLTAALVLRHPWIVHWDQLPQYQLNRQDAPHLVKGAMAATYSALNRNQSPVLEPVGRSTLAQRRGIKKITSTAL

[17] = molecular target: Serine/threonine-protein kinase RIO1 (Homo sapiens) (UniProt Q9BRS2); details: Compound concentration 1000.0 nM
Serine/threonine-protein kinase RIO1 (Homo sapiens), sequence (Q9BRS2 whole entry): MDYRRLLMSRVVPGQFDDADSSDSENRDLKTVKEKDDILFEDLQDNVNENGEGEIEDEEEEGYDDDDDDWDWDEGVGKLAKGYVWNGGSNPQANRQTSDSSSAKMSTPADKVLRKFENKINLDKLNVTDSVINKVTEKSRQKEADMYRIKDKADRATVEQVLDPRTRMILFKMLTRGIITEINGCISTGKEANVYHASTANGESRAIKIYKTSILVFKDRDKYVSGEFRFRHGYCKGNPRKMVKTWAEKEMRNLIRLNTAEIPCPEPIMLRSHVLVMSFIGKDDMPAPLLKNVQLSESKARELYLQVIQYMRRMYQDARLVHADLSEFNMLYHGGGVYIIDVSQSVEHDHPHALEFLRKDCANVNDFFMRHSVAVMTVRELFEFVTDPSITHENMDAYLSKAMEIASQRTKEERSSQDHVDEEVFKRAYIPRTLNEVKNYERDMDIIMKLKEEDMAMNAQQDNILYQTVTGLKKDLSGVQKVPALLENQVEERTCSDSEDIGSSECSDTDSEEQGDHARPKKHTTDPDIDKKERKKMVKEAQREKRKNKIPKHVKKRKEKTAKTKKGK

[18] = molecular target: Sigma intracellular receptor 2 (Homo sapiens) (UniProt Q5BJF2); details: Compound concentration 10.0 uM
[19] = molecular target: Solute carrier family 2, facilitated glucose transporter member 4 (Homo sapiens, UniProt P14672); assay: Cell-based assay with CellTiter-Glo readout for ATP production with SLC2A4
[20] = molecular target: 5-hydroxytryptamine receptor 7 (Homo sapiens) (UniProt P34969); details: Compound concentration 10.0 uM
[21] = organism: Rattus norvegicus; details: Compound concentration 10.0 uM
[22] = molecular target: Histamine H2 receptor (Homo sapiens, UniProt P25021); assay: GPCRScan assay: inhibition of H2; design: radioligand conc. used [nm] 0.02 – 0.05, parental cells Stable HEK
[23] = molecular target: T1, Histamine H1 receptor; assay: GPCRScan assay: inhibition of H1; design: radioligand conc. used [nm] 0.6 – 2.0, parental cells stable HEK

T1 sequence (P35367 whole entry): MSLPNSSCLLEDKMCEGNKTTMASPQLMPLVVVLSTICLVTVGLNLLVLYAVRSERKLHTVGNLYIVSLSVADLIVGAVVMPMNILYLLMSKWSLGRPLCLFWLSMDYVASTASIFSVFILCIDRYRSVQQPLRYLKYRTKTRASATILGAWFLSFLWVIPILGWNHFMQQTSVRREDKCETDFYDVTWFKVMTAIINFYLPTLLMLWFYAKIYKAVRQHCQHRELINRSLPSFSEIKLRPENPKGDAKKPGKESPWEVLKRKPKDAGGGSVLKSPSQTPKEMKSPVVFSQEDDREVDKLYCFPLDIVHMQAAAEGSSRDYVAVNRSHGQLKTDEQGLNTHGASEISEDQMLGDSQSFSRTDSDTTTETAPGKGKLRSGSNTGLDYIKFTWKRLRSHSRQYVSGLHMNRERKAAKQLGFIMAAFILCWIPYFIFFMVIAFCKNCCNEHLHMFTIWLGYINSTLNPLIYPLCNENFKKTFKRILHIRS
Non-receptor tyrosine-protein kinase TYK2 (Homo sapiens), sequence (P29597 whole entry): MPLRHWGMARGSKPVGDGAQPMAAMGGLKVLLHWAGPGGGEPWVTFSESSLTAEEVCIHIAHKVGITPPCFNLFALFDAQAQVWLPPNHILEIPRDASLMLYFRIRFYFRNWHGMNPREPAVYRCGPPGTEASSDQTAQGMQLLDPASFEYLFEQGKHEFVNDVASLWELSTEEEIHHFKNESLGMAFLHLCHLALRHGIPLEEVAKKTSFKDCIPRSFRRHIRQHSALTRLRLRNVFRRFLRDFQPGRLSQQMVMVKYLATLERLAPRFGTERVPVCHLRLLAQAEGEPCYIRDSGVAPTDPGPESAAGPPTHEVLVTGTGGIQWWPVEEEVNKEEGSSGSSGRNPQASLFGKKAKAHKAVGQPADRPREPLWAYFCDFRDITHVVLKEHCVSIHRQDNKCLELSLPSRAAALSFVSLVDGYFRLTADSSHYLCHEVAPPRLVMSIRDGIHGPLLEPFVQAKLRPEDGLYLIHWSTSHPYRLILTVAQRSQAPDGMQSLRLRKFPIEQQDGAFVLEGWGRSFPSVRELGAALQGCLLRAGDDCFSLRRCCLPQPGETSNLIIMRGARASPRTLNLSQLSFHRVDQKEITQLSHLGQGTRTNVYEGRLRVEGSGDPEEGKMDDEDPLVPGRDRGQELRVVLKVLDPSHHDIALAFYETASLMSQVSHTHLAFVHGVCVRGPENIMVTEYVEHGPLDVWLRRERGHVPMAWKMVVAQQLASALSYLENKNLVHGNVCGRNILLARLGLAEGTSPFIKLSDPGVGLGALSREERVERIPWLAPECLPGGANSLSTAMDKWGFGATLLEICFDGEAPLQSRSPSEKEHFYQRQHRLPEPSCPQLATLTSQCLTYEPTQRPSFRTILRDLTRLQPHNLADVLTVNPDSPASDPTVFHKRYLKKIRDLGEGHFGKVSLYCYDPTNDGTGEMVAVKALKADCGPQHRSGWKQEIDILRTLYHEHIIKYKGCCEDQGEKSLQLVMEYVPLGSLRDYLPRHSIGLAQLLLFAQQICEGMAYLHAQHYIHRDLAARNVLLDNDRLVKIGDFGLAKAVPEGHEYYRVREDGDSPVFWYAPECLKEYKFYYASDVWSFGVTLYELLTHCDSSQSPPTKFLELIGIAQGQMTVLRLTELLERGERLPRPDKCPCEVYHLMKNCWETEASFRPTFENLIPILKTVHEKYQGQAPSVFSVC

Compound | residual activity [3] | residual activity [4] | residual activity [5] | residual activity [7] | residual activity [8] | residual activity [9] | residual activity [10] | residual activity [11] | residual activity [14] | residual activity [15] | residual activity [16] | residual activity [17] | other results
Cc1c(NC(=O)c2cc(C(N)=O)nc3cc(F)ccc23)c(C(F)(F)F)nn1Cc1ccc(C(C)(C)C)cc1 [BAY-588] | 100% | 100% | 100% | 100% | 100% | 100% | 100% | 84% | 100% | 79% | 100% | 93% | inhibition [1]: -9.45%; inhibition [2]: 46.1%; inhibition [6]: -4.06%; inhibition [12]: 3.41%; IC50 [13]: > 10 µM (not active); inhibition [18]: 40.7%
Cc1c(NC(=O)c2cc(C(N)=O)nc3cc(F)ccc23)c(C(F)(F)F)nn1Cc1ccc(C#N)cc1 [BAY-876] | 83% | 95% | 81% | 100% | 86% | 93% | 74% | 90% | 81% | 90% | 82% | 93% | IC50 [19]: 0.27 µM (not active); inhibition [20]: 2.31%; inhibition [21]: -1.8%; Ki [22]: 8.08 µM; Ki [23]: 10 µM
